Values quoted from earlier work, collected in patent publication EP2561868A1 (Van Oosten, Anton Bernhard, priority 2011, dated 2013).
Entries after “also recorded” stand apart in the source; their conditions may differ.

What was measured:
[1] = system: multiple myeloma and MGUS; conditions: patients with multiple myeloma and MGUS
[2] = system: serum immunoglobulin; conditions: patient Z
[3] = system: bone marrow plasma cell; conditions: patient Z
[4] = molecular target: P-glycoprotein (Homo sapiens, UniProt P08183)
[5] = molecular target: human CYP3A4 (Homo sapiens, UniProt P08684)
[6] = not given; remark: listed apart in the source
[7] = curcumin 8000 - 14,000 mg, no HCQ

Chain of human CYP3A4 (P08684 whole entry): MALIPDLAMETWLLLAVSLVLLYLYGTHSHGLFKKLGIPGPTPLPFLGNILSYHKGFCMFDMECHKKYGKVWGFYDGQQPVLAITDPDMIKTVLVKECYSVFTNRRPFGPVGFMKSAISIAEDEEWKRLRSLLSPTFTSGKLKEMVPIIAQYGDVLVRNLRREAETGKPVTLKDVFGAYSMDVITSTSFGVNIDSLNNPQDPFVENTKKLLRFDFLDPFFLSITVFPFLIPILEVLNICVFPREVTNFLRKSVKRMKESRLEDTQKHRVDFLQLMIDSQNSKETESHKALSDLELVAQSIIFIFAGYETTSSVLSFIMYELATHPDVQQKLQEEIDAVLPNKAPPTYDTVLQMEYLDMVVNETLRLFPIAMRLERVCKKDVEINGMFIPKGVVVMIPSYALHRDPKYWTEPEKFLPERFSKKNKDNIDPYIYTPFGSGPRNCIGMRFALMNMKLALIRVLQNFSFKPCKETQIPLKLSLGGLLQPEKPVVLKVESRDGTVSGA
Chain of P-glycoprotein (P08183 whole entry): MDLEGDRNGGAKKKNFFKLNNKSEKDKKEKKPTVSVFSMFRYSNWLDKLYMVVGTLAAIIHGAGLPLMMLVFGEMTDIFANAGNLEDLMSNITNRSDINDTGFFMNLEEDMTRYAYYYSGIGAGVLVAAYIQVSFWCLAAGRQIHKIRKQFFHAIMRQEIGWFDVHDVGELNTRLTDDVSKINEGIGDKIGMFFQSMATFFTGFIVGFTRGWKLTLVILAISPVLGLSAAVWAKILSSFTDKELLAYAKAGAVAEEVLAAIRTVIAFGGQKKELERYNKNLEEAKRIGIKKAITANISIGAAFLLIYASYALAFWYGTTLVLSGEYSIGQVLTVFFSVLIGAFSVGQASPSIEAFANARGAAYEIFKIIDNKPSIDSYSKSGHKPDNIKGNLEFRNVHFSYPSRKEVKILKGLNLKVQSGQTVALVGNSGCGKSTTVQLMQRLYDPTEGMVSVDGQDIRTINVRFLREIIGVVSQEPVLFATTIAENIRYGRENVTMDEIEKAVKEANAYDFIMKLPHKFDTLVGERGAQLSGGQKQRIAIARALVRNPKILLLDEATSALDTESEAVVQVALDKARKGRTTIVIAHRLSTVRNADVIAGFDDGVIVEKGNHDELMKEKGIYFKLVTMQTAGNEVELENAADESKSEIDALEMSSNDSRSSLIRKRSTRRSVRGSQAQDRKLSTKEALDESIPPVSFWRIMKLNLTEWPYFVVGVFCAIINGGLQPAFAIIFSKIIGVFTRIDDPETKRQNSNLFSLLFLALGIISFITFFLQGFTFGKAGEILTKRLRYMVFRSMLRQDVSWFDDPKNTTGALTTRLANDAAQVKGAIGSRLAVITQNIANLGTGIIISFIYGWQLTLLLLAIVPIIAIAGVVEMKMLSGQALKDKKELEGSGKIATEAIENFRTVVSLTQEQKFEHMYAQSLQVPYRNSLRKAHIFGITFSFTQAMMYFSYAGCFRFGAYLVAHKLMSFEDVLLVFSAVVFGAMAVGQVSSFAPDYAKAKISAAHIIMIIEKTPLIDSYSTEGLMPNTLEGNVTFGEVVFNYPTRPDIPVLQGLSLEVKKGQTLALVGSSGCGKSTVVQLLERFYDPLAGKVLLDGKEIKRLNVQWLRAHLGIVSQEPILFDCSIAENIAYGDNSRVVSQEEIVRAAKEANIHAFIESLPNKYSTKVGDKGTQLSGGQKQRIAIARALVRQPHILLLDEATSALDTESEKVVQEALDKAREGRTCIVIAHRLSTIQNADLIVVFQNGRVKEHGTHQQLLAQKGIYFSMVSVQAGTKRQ

For `COc1cc(/C=C/C(=O)CC(=O)/C=C/c2ccc(O)c(OC)c2)ccc1O` [curcumin], the objective responses [1] is listed as “no objective responses”, the “m-spike / M-IgG serum concentration, response to treatment” value [2, 7] is listed as “did not react to treatment” and the clinical benefit ([3]; 8000 mg to 14,000 mg daily, June 27 to December 26, 2007) is listed as “without any clear benefit”. For the same compound, the “BMPC values / progression” value [3, 7] was “did not prevent progression or cause a downward evolution of the BMPC nor the m-spike; also recorded: No clear benefit”.
For `O=C(/C=C/C=C/c1ccc2c(c1)OCO2)N1CCCCC1` [piperine], the “inhibition of P-glycoprotein” value [4] is listed as “inhibit” and the “inhibition of human CYP3A4” value [5] is listed as “inhibit”.
For `O=C1CC[C@@]2(O)[C@H]3Cc4ccc(O)c5c4[C@@]2(CCN3CC2CC2)[C@H]1O5` [LDN], the IgG ([2]; serum, 12/26/07, LDN, diet) is listed as 30.0 g/L and the M-IgG ([2]; serum, 12/26/07, LDN, diet) is listed as 20.5 g/L.
In the case of `CCN(CCO)CCCC(C)Nc1ccnc2cc(Cl)ccc12.O=S(=O)(O)O` (centres unmarked) [Hydroxychloroquine, 2-[[4-[(7-Chloro-4-quinolyl)amino]pentyl]ethylamino] ethanol sulfate (1:1)], the soluble in water is given as “at least 20%”, the risk of toxicity ([6]; after 5 to 7 years of use, or a cumulative dose of 1000 g) is given as ~1% and the dose considered safe ([6]; non-obese person (Marmor M et al., 2002)) is given as 6.5 mg/kg/day.
